Experimental data published in US10131652B2, “Pyrimidinyloxy benzene derivatives as herbicides” (E. I. DU PONT DE NEMOURS AND COMPANY, priority 2014, dated 2018).

How the values were obtained:
Format in all cases: in vivo
[1] = system: corn (Zea mays); experiment: Test B pre-/postemergence plant response
In short: (§1)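 Greenhouse pots, loam/sand soil; compound formulated with surfactant in non-phytotoxic solvent. Preemergence soil spray and postemergence spray at 1–2 leaf stage run simultaneously. Visual injury, 0–100, about 10 days post-treatment.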

[2] = system: barnyardgrass (Echinochloa crus-galli); experiment: Test B pre-/postemergence plant response
In short: as §1

[3] = system: wheat (Triticum aestivum); experiment: Test B pre-/postemergence plant response
In short: as §1

[4] = system: pigweed (Amaranthus retroflexus); experiment: Test B pre-/postemergence plant response
In short: as §1

[5] = system: giant foxtail (Setaria faberii); experiment: Test B pre-/postemergence plant response
In short: as §1

[6] = system: yellow nutsedge (Cyperus esculentus); experiment: Test D pre-/postemergence plant response
Excerpt: (§2) Seeds of plant species selected from blackgrass (Alopecurus myosuroides), Italian ryegrass (Lolium multiflorum), winter wheat (Triticum aestivum), galium (catchweed bedstraw, Galium aparine), corn (Zea mays), large (Lg) crabgrass (Digitaria sanguinalis), giant foxtail (Setaria faberii), johnsongrass (Sorghum halepense), lambsquarters (Chenopodium album), morningglory (Ipomoea coccinea), yellow nutsedge (Cyperus esculentus), pigweed (Amaranthus retroflexus), ragweed (common ragweed, Ambrosia elatior), soybean (Glycine max), bamyardgrass (Echinochloa crus-galli), oilseed rape (Brassica napus), waterhemp (common waterhemp, Amaranthus rudis), and velvetleaf (Abutilon theophrasti) were planted into a blend of loam soil and sand and treated preemergence with test chemicals formulated in a non-phytotoxic solvent mixture which included a surfactant. At the same time, plants selected from these crop and weed species and also kochia (Kochia scoparia), wild oat (Avena fatua), and chickweed (common chickweed, Stellaria media) were planted in pots containing Redi-Earth® planting medium (Scotts Company, 14111 Scottslawn Road, Marysville, Ohio 43041) comprising spaghnum peat moss, vermiculite, wetting agent and starter nutrients and treated with postemergence applications of test chemicals formulated in the same manner. Plants ranged in height from 2 to 18 cm (1- to 4-leaf stage) for postemergence treatments. Treated plants and controls were maintained in a greenhouse for 13 to 15 days, after which time all species were compared to controls and visually evaluated. Plant response ratings, summarized in Table D, are based on a scale of 0 to 100 where 0 is no effect and 100 is complete control. A dash (-) response means no test result.

[7] = system: blackgrass (Alopecurus myosuroides); experiment: Test D pre-/postemergence plant response
Excerpt: as §2

[8] = system: morningglory (Ipomoea coccinea); experiment: Test D pre-/postemergence plant response
Excerpt: as §2

[9] = system: barnyardgrass (Echinochloa crus-galli); experiment: Test D pre-/postemergence plant response
Excerpt: as §2

[10] = system: johnsongrass (Sorghum halepense); experiment: Test D pre-/postemergence plant response
Excerpt: as §2

[11] = system: large (Lg) crabgrass (Digitaria sanguinalis); experiment: Test D pre-/postemergence plant response
Excerpt: as §2

[12] = system: pigweed (Amaranthus retroflexus); experiment: Test D pre-/postemergence plant response
Excerpt: as §2

[13] = system: giant foxtail (Setaria faberii); experiment: Test D pre-/postemergence plant response
Excerpt: as §2

[14] = system: ragweed (common ragweed, Ambrosia elatior); experiment: Test D pre-/postemergence plant response
Excerpt: as §2

[15] = system: soybean (Glycine max); experiment: Test D pre-/postemergence plant response
Excerpt: as §2

[16] = system: waterhemp (common waterhemp, Amaranthus rudis); experiment: Test D pre-/postemergence plant response
Excerpt: as §2

[17] = 125 g ai/ha, postemergence, 0 to 100 scale, 0 no effect, 100 complete control
[18] = Postemergence, 500 g ai/ha, 0 to 100 scale (0 no effect, 100 complete control)
[19] = Preemergence, 125 g ai/ha, 0 to 100 scale where 0 is no effect and 100 is complete control
[20] = Preemergence, 500 g ai/ha, 0 to 100 scale where 0 is no effect and 100 is complete control
[21] = Postemergence, 16 g ai/ha, scale 0 to 100 (0 no effect, 100 complete control)
[22] = Postemergence, 31 g ai/ha, scale 0 to 100 (0 no effect, 100 complete control)
[23] = Postemergence, 62 g ai/ha, scale 0 to 100, 0 no effect, 100 complete control
[24] = Postemergence, 125 g ai/ha, scale 0 to 100, 0 no effect, 100 complete control
[25] = Preemergence, 16 g ai/ha, scale 0 to 100 (0 no effect, 100 complete control)
[26] = Preemergence, 31 g ai/ha, scale 0 to 100 (0 no effect, 100 complete control)
[27] = Preemergence, 62 g ai/ha, scale 0 to 100 (0 no effect, 100 complete control)

Cc1cc(-c2ccccc2Oc2ncc(Cl)cn2)no1 [Compound 60]
Plant response rating, Corn [1, 17]: 30
Plant response rating, Corn [1, 18]: 90
Plant response rating, Barnyardgrass [2, 17]: 50
Plant response rating, Barnyardgrass [2, 18]: 100
Plant response rating, Barnyardgrass [2, 19]: 80
Plant response rating, Barnyardgrass [2, 20]: 100
Plant response rating, Wheat [3, 17]: 30
Plant response rating, Wheat [3, 18]: 90
Plant response rating, Pigweed [4, 17]: 100
Plant response rating, Pigweed [4, 18]: 100
Plant response rating, Pigweed [4, 19]: 100
Plant response rating, Pigweed [4, 20]: 100
Plant response rating, Foxtail, Giant [5, 17]: 50
Plant response rating, Foxtail, Giant [5, 18]: 100
Plant response rating, Foxtail, Giant [5, 19]: 80
Plant response rating, Foxtail, Giant [5, 20]: 100
Nutsedge, Yellow plant response rating [6, 21]: 0
Nutsedge, Yellow plant response rating [6, 22]: 0
Plant response rating, Nutsedge, Yellow [6, 23]: 0
Plant response rating, Nutsedge, Yellow [6, 24]: 5
Plant response rating (scale 0 to 100), Nutsedge, Yellow ([6]; Preemergence, 125 g ai/ha): 5
Plant response rating, Nutsedge, Yellow [6, 25]: 0
Plant response rating, Nutsedge, Yellow [6, 26]: 0
Plant response rating, Nutsedge, Yellow [6, 27]: 0
Blackgrass plant response rating [7, 21]: 0
Blackgrass plant response rating [7, 22]: 0
Plant response rating, Blackgrass [7, 23]: 5
Plant response rating, Blackgrass [7, 24]: 20
Plant response rating (scale 0 to 100), Blackgrass ([7]; Preemergence, 125 g ai/ha): 70
Plant response rating, Blackgrass [7, 25]: 0
Plant response rating, Blackgrass [7, 26]: 5
Plant response rating, Blackgrass [7, 27]: 10
Morningglory plant response rating [8, 21]: 0
Morningglory plant response rating [8, 22]: 40
Plant response rating, Morningglory [8, 23]: 25
Plant response rating, Morningglory [8, 24]: 40
Plant response rating (scale 0 to 100), Morningglory ([8]; Preemergence, 125 g ai/ha): 20
Plant response rating, Morningglory [8, 25]: 0
Plant response rating, Morningglory [8, 26]: 0
Plant response rating, Morningglory [8, 27]: 10
Barnyardgrass plant response rating [9, 21]: 0
Barnyardgrass plant response rating [9, 22]: 0
Plant response rating, Barnyardgrass [9, 23]: 10
Plant response rating, Barnyardgrass [9, 24]: 10
Plant response rating (scale 0 to 100), Barnyardgrass ([9]; Preemergence, 62 g ai/ha): 30
Plant response rating (scale 0 to 100), Barnyardgrass ([9]; Preemergence, 125 g ai/ha): 75
Plant response rating, Barnyardgrass [9, 25]: 0
Plant response rating, Barnyardgrass [9, 26]: 5
Johnsongrass plant response rating [10, 21]: 0
Johnsongrass plant response rating [10, 22]: 0
Plant response rating, Johnsongrass [10, 23]: 0
Plant response rating, Johnsongrass [10, 24]: 5
Plant response rating (scale 0 to 100), Johnsongrass ([10]; Preemergence, 125 g ai/ha): 45
Plant response rating, Johnsongrass [10, 25]: 0
Plant response rating, Johnsongrass [10, 26]: 0
Plant response rating, Johnsongrass [10, 27]: 15
Crabgrass, Large plant response rating [11, 21]: 5
Crabgrass, Large plant response rating [11, 22]: 5
Plant response rating, Crabgrass, Large [11, 23]: 5
Plant response rating, Crabgrass, Large [11, 24]: 5
Plant response rating (scale 0 to 100), Crabgrass, Large ([11]; Preemergence, 125 g ai/ha): 100
Plant response rating, Crabgrass, Large [11, 25]: 5
Plant response rating, Crabgrass, Large [11, 26]: 55
Plant response rating, Crabgrass, Large [11, 27]: 100
Pigweed plant response rating [12, 21]: 20
Pigweed plant response rating [12, 22]: 35
Plant response rating, Pigweed [12, 23]: 55
Plant response rating, Pigweed [12, 24]: 70
Plant response rating (scale 0 to 100), Pigweed ([12]; Preemergence, 125 g ai/ha): 100
Plant response rating, Pigweed [12, 25]: 75
Plant response rating, Pigweed [12, 26]: 100
Plant response rating, Pigweed [12, 27]: 100
Foxtail, Giant plant response rating [13, 21]: 0
Foxtail, Giant plant response rating [13, 22]: 5
Plant response rating, Foxtail, Giant [13, 23]: 5
Plant response rating, Foxtail, Giant [13, 24]: 10
Plant response rating (scale 0 to 100), Foxtail, Giant ([13]; Preemergence, 125 g ai/ha): 95
Plant response rating, Foxtail, Giant [13, 25]: 0
Plant response rating, Foxtail, Giant [13, 26]: 5
Plant response rating, Foxtail, Giant [13, 27]: 40
Ragweed plant response rating [14, 21]: 15
Ragweed plant response rating [14, 22]: 30
Plant response rating, Ragweed [14, 23]: 40
Plant response rating, Ragweed [14, 24]: 70
Plant response rating (scale 0 to 100), Ragweed ([14]; Preemergence, 125 g ai/ha): 90
Plant response rating, Ragweed [14, 25]: 15
Plant response rating, Ragweed [14, 26]: 55
Plant response rating, Ragweed [14, 27]: 65
Soybean plant response rating [15, 21]: 65
Soybean plant response rating [15, 22]: 65
Plant response rating, Soybean [15, 23]: 95
Plant response rating, Soybean [15, 24]: 95
Plant response rating (scale 0 to 100), Soybean ([15]; Preemergence, 125 g ai/ha): 95
Plant response rating, Soybean [15, 25]: 35
Plant response rating, Soybean [15, 26]: 55
Plant response rating, Soybean [15, 27]: 65
Waterhemp plant response rating [16, 21]: 15
Waterhemp plant response rating [16, 22]: 30
Plant response rating, Waterhemp [16, 23]: 50
Plant response rating, Waterhemp [16, 24]: 70
Plant response rating (scale 0 to 100), Waterhemp ([16]; Preemergence, 125 g ai/ha): 100
Plant response rating, Waterhemp [16, 25]: 80
Plant response rating, Waterhemp [16, 26]: 100
Plant response rating, Waterhemp [16, 27]: 100
